Columns and labels:
Experiment in all cases: NCI60 five-dose screen
[1] = test system: SN12C; format: cell-based; conditions: Homo sapiens, renal cancer; for CC50: read-out: LC50 (the source's name)
[2] = test system: MDA-MB-231/ATCC; format: cell-based; conditions: Homo sapiens, breast cancer; for CC50: read-out: LC50 (the source's name)
[3] = test system: SF-268; format: cell-based; conditions: Homo sapiens, SF-268, CNS cancer; for CC50: read-out: LC50 (the source's name)
[4] = test system: HCT-15; format: cell-based; conditions: Homo sapiens, HCT-15, colon cancer; for CC50: read-out: LC50 (the source's name)
[5] = test system: SK-MEL-28; format: cell-based; conditions: Homo sapiens, SK-MEL-28, melanoma; for CC50: read-out: LC50 (the source's name)
[6] = test system: SW-620; format: cell-based; conditions: Homo sapiens, SW-620, colon cancer; for CC50: read-out: LC50 (the source's name)
[7] = test system: HL-60 (TB); format: cell-based; conditions: Homo sapiens, leukemia; for CC50: read-out: LC50 (the source's name)
[8] = test system: OVCAR-3; format: cell-based; conditions: Homo sapiens, OVCAR-3, ovarian cancer; for CC50: read-out: LC50 (the source's name)
[9] = test system: MALME-3M; format: cell-based; conditions: Homo sapiens, melanoma; for CC50: read-out: LC50 (the source's name)
[10] = test system: SK-MEL-2; format: cell-based; conditions: Homo sapiens, SK-MEL-2, melanoma; for CC50: read-out: LC50 (the source's name)
[11] = test system: EKVX; format: cell-based; conditions: Homo sapiens, NSC lung cancer; for CC50: read-out: LC50 (the source's name)
[12] = test system: MDA-MB-468; format: cell-based; conditions: Homo sapiens, MDA-MB-468, breast cancer; for CC50: read-out: LC50 (the source's name)
[13] = test system: UO-31; format: cell-based; conditions: Homo sapiens, UO-31, renal cancer; for CC50: read-out: LC50 (the source's name)
[14] = test system: RXF 393; format: cell-based; conditions: Homo sapiens, RXF 393, renal cancer; for CC50: read-out: LC50 (the source's name)
[15] = test system: A549/ATCC; format: cell-based; conditions: Homo sapiens, NSC lung cancer; for CC50: read-out: LC50 (the source's name)
[16] = test system: KM12; format: cell-based; conditions: Homo sapiens, KM12, colon cancer; for CC50: read-out: LC50 (the source's name)
[17] = test system: SF-295; format: cell-based; conditions: Homo sapiens, SF-295, CNS cancer; for CC50: read-out: LC50 (the source's name)
[18] = test system: NCI/ADR-RES; format: cell-based, human; conditions: Homo sapiens, ovarian cancer; for CC50: read-out: LC50 (the source's name)
[19] = test system: BT-549; format: cell-based; conditions: Homo sapiens, BT-549, breast cancer; for CC50: read-out: LC50 (the source's name)
[20] = test system: HOP-92; format: cell-based; conditions: Homo sapiens, HOP-92, NSC lung cancer; for CC50: read-out: LC50 (the source's name)
[21] = test system: NCI-H322M; format: cell-based; conditions: Homo sapiens, NSC lung cancer; for CC50: read-out: LC50 (the source's name)
[22] = test system: IGROV1; format: cell-based; conditions: Homo sapiens, IGROV-1; IGROV1, ovarian cancer
[23] = test system: TK-10; format: cell-based; conditions: Homo sapiens, TK-10, renal cancer; for CC50: read-out: LC50 (the source's name)
[24] = test system: COLO 205; format: cell-based, human; conditions: Homo sapiens; for CC50: COLO 205, COLO 205, colon cancer, read-out: LC50 (the source's name); for GI50: COLO 205, colon cancer
[25] = test system: HS 578T; format: cell-based; conditions: Homo sapiens, breast cancer; for CC50: read-out: LC50 (the source's name)
[26] = test system: NCI-H23; format: cell-based; conditions: Homo sapiens, NCI-H23, NSC lung cancer; for CC50: read-out: LC50 (the source's name)
[27] = test system: HOP-62; format: cell-based; conditions: Homo sapiens, HOP-62, NSC lung cancer; for CC50: read-out: LC50 (the source's name)
[28] = test system: A498; format: cell-based; conditions: Homo sapiens, A498, renal cancer; for CC50: read-out: LC50 (the source's name)
[29] = test system: SK-OV-3; format: cell-based; conditions: Homo sapiens, SK-OV-3, ovarian cancer; for CC50: read-out: LC50 (the source's name)
[30] = test system: UACC-62; format: cell-based; conditions: Homo sapiens, UACC-62, melanoma; for CC50: read-out: LC50 (the source's name)
[31] = test system: PC-3; format: cell-based; conditions: Homo sapiens, PC-3, prostate cancer; for CC50: read-out: LC50 (the source's name)
[32] = test system: T-47D; format: cell-based; conditions: Homo sapiens, T47D, breast cancer; for CC50: read-out: LC50 (the source's name)

CCc1cc[nH]c1/C=N/NC(=O)c1[nH]c2ccc(Br)cc2c1-c1ccccc1 [Derivative 3u, (E)-5-Bromo-N′-((3-ethyl-1H-pyrrol-2-yl)methylene)-3-phenyl-1H-indole-2-carbohydrazide]
GI50 [1]: 2.26 µM
CC50 [1]: 34 µM
GI50 [2]: 5.02 µM
CC50 [2]: 44.7 µM
GI50 [3]: 2.86 µM
CC50 [3]: 42.7 µM
GI50 [4]: 1.03 µM
CC50 [4]: 38.8 µM
GI50 [5]: 3.46 µM
CC50 [5]: 40.1 µM
GI50 [6]: 3.82 µM
CC50 [6]: 43.3 µM
GI50 [7]: 2.03 µM
CC50 [7]: 24.3 µM
GI50 [8]: 3.2 µM
CC50 [8]: 44 µM
GI50 [9]: 3.5 µM
CC50 [9]: 40 µM
GI50 [10]: 6.77 µM
CC50 [10]: 45.8 µM
GI50 [11]: 2.79 µM
CC50 [11]: 37.7 µM
GI50 [12]: 2.72 µM
CC50 [12]: 32.1 µM
GI50 [13]: 2.94 µM
CC50 [13]: 39.7 µM
GI50 [14]: 1.19 µM
CC50 [14]: 18.7 µM
GI50 [15]: 2 µM
CC50 [15]: 41.5 µM
GI50 [16]: 3.17 µM
CC50 [16]: 42.3 µM
GI50 [17]: 2.29 µM
CC50 [17]: 37.1 µM
GI50 [18]: 2.68 µM
CC50 [18]: 34.6 µM
GI50 [19]: 2.7 µM
CC50 [19]: 34.2 µM
GI50 [20]: 3.8 µM
CC50 [20]: 44.3 µM
GI50 [21]: 3.93 µM
CC50 [21]: 43.4 µM
GI50 [22]: 3.52 µM
LC50 (concentration causing 50% net cell kill) [22]: 44 µM
GI50 [23]: 5.05 µM
CC50 [23]: 41.6 µM
CC50 [24]: 41.3 µM
GI50 [24]: 2.96 µM
GI50 [25]: 3.6 µM
CC50 [25]: 61.8 µM
GI50 [26]: 2.66 µM
CC50 [26]: 38.3 µM
GI50 [27]: 3.77 µM
CC50 [27]: 45.8 µM
GI50 [28]: 1.45 µM
CC50 [28]: 55.4 µM
GI50 [29]: 2.59 µM
CC50 [29]: 42.4 µM
GI50 [30]: 2.48 µM
CC50 [30]: 30.8 µM
GI50 [31]: 3.09 µM
CC50 [31]: 47.6 µM
GI50 [32]: 2.17 µM
CC50 [32]: 41.9 µM

CCOC(=O)c1cc(/C=N/NC(=O)c2[nH]c3ccc(Br)cc3c2-c2ccccc2)c[nH]1 [Derivative 3v, Ethyl (E)-4-((2-(5-bromo-3-phenyl-1H-indole-2-carbonyl)hydrazono)methyl)-1H-pyrrole-2-carboxylate]
GI50 [1]: 3.63 µM
CC50 [1]: 38.1 µM
GI50 [2]: 3.27 µM
CC50 [2]: 33.8 µM
GI50 [3]: 6.04 µM
CC50 [3]: > 100 µM
GI50 [4]: 3.21 µM
CC50 [4]: 35.7 µM
GI50 [5]: 4.73 µM
CC50 [5]: 48.5 µM
GI50 [6]: 4.41 µM
CC50 [6]: 40.1 µM
GI50 [7]: 4.68 µM
CC50 [7]: > 100 µM
GI50 [8]: 3.23 µM
CC50 [8]: 33.4 µM
GI50 [9]: 4.32 µM
CC50 [9]: 52.8 µM
GI50 [10]: 4.37 µM
CC50 [10]: 47.3 µM
GI50 [11]: 7.14 µM
CC50 [11]: 60.7 µM
GI50 [12]: 2.6 µM
CC50 [12]: 34 µM
GI50 [13]: 4.21 µM
CC50 [13]: 61.9 µM
GI50 [14]: 2.56 µM
CC50 [14]: 33 µM
GI50 [15]: 4.37 µM
CC50 [15]: 44.2 µM
GI50 [16]: 3.37 µM
CC50 [16]: 35.5 µM
GI50 [17]: 3.04 µM
CC50 [17]: 37.2 µM
GI50 [18]: 2.23 µM
CC50 [18]: 21.2 µM
GI50 [19]: 13.4 µM
CC50 [19]: 60.2 µM
GI50 [20]: 7.99 µM
CC50 [20]: > 100 µM
GI50 [21]: 4.42 µM
CC50 [21]: 76.1 µM
GI50 [22]: 3.75 µM
GI50 [23]: 12.5 µM
CC50 [23]: 80.7 µM
CC50 [24]: 34.8 µM
GI50 [24]: 3.51 µM
GI50 [25]: 3.11 µM
CC50 [25]: > 100 µM
GI50 [26]: 3.42 µM
CC50 [26]: 40.4 µM
GI50 [27]: 6.66 µM
CC50 [27]: 69.2 µM
GI50 [28]: 12.9 µM
CC50 [28]: 52.1 µM
GI50 [29]: 1.31 µM
CC50 [29]: 80.3 µM
GI50 [30]: 3.18 µM
CC50 [30]: 40.7 µM
GI50 [31]: 4.07 µM
CC50 [31]: > 100 µM
GI50 [32]: 5.88 µM
CC50 [32]: > 100 µM

From article PMC12203311, “Design, synthesis, in silico and in vitro evaluation of pyrrole–indole hybrids as dual tubulin and aromatase inhibitors with potent anticancer activities” (RSC Advances, 2025)
